Source: US6461845B1, “Recombinant hepatitis C virus RNA replicase” (Emory University, priority 1995, dated 2002)

Key:
[1] = RNA synthesis by r-HCV-RDRP in vitro, Mg++ dependence; format: biochemical
Procedure: Both reactions were >90% primer-dependent under the described reaction conditions.
Assay conditions for r-HCV-RDRP activity: The preferred conditions for assaying RDRP activity are described. The alternative conditions are operative, and designated as alternatives, in parentheses. Incubations were carried out 20 or 50 μl in final volumes that contain: 20-50 mM HEPES-pH 8.0 (alternative is 20 mM Tris-HCl;pH 7.5); 1.5-5 mM MnCl2; 100 mM ammonium acetate; 1-4 mM dithiothreitol (DDT), 500 μM each ATP, CTP, and GTP (alternative: 500 μM GTP and 250 μM each ATP and CTP); 10 μM UTP; 1-20 μCi of [α-^33P]UTP (alternative is to use [α-^32P]UTP or [^3H]UTP), 10-20 U of RNasin; and rHCV-RDRP protein. Templates: 500-1000 ng of a preferred heteropolymeric template (e.g., either a 98 nt 3′-end of HCV genomic RNA or HCV RNA that included both the 5′ and 3′ ends of genomic or negative stranded HCV RNA) per 50 μl incubation; (as an alternative template, poly(A)/oligo(U) on either 20 μg/ml poly(A)460-600, and 10 μg/ml oligo (U)5-25 (or 0.8 μg of 10:1 mix of poly(A)/oligo(U) per 50 μl incubation can be employed). If the enzyme preparation is not >90-95 % pure include 50 μg/ml of actinomycin D. Incubations are for 15-120 min at 30° C. (or 22° C.). Note: stop incubations by adding 100 mM EDTA and then process for trichloroacetic acid (TCA) precipitation.

[2] = isoelectric point of the enzyme; format: physicochemical
[3] = system: globin mRNA template; test: RNA synthesis assay using a globin mRNA template; format: biochemical; settings: described reaction conditions
Procedure: (§1) Assay conditions for r-HCV-RDRP activity: The preferred conditions for assaying RDRP activity are described. The alternative conditions are operative, and designated as alternatives, in parentheses. Incubations were carried out 20 or 50 μl in final volumes that contain: 20-50 mM HEPES-pH 8.0 (alternative is 20 mM Tris-HCl;pH 7.5); 1.5-5 mM MnCl2; 100 mM ammonium acetate; 1-4 mM dithiothreitol (DDT), 500 μM each ATP, CTP, and GTP (alternative: 500 μM GTP and 250 μM each ATP and CTP); 10 μM UTP; 1-20 μCi of [α-^33P]UTP (alternative is to use [α-^32P]UTP or [^3H]UTP), 10-20 U of RNasin; and rHCV-RDRP protein. […]
(§2) Labeled nucleotides incorporated into RNA are precipitated by TCA. The precipitates are collected, washed and counted, e.g. in a scintillation counter to measure the quantity of RNA synthesized in the enzyme reaction. […] [^3H]poly(U) was quantitated by liquid scintillation spectrometry (LKB 1218 RackBeta). The synthesized RNA can also be analyzed by gel electrophoresis to determine the size of the synthesized RNA chains. For gel analysis the reaction mixture is inactivated with 100 μl of proteinase K buffer; digested with proteinase K, processed and the RNA products are analyzed by formaldehyde/agarose gel electrophoresis or 6% denaturing polyacrylamide-7 M urea gel electrophoresis.

[4] = system: poly(A) template; test: poly(U) synthesis assay using a poly(A) template; format: biochemical; settings: described reaction conditions
Procedure: as §1, §2

r-HCV-RDRP: Modified recombinant HCV RNA-dependent RNA polymerase (NS5B, type 1a) with N-terminal Met-Ala dipeptide, expressed in E. coli
Mg++ concentration giving maximal activity [1]: about 20 mM
activity in the absence of Mg++ ([1]; no Mg++): no detectable activity
isoelectric point [2]: approximately 8.8
primer dependence of RNA synthesis [3]: > 90%
primer dependence of poly(U) synthesis [4]: > 90%
